Measurements taken from ChEMBL document CHEMBL4330134, “Design, synthesis, and bioevaluation of a novel class of (E)-4-oxo-crotonamide derivatives as potent antituberculosis agents” (Bioorg Med Chem Lett, 2019).
Converted amounts (≈) assume the structure as drawn.

System: Mycobacterium tuberculosis
Test: Antimycobacterial activity against miltidrug-resistant Mycobacterium tuberculosis
Format: functional

`COC(=O)/C=C/C(=O)c1ccc(OC)cc1` showed an MIC of 0.25 to 1 µg/mL (≈ 1.14 to 4.54 µM).
